Reference: ChEMBL document CHEMBL1909046, “DrugMatrix in vitro pharmacology data”

Experiments:
[1] = molecular target: Aldo-keto reductase family 1 member B1 (Rattus norvegicus, UniProt P07943); format: tissue-based, Lens of camera-type eye;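 further: inhibition of aldose reductase enzyme activity, measured with DL-glyceraldehyde as the substrate; in other assays of this panel Not Active means under 50% inhibition at 10 µM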
Substance-P receptor = Substance-P receptor (Homo sapiens, UniProt P25103); format: cell membranes, CHO, Membrane; details: cho; further: in other assays of this panel Not Active means under 50% inhibition at 10 µM
Sequence of Substance-P receptor (P25103 whole entry): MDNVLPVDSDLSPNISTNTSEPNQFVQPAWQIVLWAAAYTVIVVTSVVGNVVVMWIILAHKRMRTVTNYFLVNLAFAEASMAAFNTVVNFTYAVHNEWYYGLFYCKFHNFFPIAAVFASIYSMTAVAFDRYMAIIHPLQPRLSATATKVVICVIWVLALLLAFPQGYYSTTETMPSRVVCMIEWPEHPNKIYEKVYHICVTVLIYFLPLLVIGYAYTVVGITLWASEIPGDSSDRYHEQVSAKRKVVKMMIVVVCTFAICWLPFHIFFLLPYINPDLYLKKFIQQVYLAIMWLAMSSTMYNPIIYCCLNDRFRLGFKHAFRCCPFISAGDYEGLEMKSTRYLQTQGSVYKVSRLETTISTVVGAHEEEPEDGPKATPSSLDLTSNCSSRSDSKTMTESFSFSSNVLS

[2] = molecular target: T1, C-X-C chemokine receptor type 2 (Homo sapiens, UniProt P25025); format: cell membranes, Membrane; details: cho-k1; further: in other assays of this panel Not Active means under 50% inhibition at 10 µM
T1 sequence (P25025 whole entry): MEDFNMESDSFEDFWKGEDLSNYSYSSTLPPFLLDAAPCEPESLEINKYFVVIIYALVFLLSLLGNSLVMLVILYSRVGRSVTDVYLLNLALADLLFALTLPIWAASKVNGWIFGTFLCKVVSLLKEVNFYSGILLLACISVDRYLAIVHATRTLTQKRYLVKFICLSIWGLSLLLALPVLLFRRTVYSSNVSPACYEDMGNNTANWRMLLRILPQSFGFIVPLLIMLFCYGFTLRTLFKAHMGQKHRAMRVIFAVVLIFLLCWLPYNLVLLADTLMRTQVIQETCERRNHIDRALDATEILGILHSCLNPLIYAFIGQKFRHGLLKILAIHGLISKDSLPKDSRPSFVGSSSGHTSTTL

D(3) dopamine receptor = D(3) dopamine receptor (Homo sapiens, UniProt P35462); experiment: DRUGMATRIX: Dopamine D3 radioligand binding (ligand: [3H] Spiperone); format: cell membranes, CHO, Membrane
Sequence of D(3) dopamine receptor (P35462 whole entry): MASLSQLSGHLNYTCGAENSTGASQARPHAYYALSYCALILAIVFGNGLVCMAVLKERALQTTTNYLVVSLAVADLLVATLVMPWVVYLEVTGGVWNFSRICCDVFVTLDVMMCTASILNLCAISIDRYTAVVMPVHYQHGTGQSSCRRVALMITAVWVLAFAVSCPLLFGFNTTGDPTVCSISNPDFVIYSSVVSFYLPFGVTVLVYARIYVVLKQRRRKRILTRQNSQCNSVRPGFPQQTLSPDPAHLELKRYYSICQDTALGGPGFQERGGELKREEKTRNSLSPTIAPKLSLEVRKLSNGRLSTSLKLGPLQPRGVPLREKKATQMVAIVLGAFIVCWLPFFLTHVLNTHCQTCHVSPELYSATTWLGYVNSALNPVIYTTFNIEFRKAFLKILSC

[3] = DRUGMATRIX: GABAA, Chloride Channel, TBOB radioligand binding (ligand: [3H] TBOB); format: cell membranes, Rattus norvegicus, Wistar, Cerebral cortex, Membrane; details: Not Active = under 50% inhibition at 10 µM
[4] = DRUGMATRIX: Glutamate, NMDA, Agonism radioligand binding (ligand: [3H] CGP-39653); format: cell membranes, Rattus norvegicus, Wistar, Cerebral cortex, Membrane; details: Not Active = under 50% inhibition at 10 µM
[5] = DRUGMATRIX: Glutamate, NMDA, Phencyclidine radioligand binding (ligand: [3H] TCP); format: cell membranes, Rattus norvegicus, Wistar, Cerebral cortex, Membrane; details: Not Active = under 50% inhibition at 10 µM
Histamine H2 receptor = Histamine H2 receptor (Homo sapiens, UniProt P25021); format: cell membranes, CHO-K1, Membrane; further: in other assays of this panel Not Active means under 50% inhibition at 10 µM
Sequence of Histamine H2 receptor (P25021 whole entry): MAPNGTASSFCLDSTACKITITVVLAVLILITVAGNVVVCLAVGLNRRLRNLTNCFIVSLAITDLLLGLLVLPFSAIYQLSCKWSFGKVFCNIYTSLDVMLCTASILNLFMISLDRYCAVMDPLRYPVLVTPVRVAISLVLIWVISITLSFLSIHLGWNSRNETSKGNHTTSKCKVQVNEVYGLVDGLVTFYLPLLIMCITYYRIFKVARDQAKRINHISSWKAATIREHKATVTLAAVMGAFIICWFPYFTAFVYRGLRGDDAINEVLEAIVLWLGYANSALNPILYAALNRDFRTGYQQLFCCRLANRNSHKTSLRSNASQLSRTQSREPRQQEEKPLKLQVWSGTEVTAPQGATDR

[6] = DRUGMATRIX: Imidazoline I2, Central radioligand binding (ligand: [3H] Idazoxan); format: cell membranes, Rattus norvegicus, Wistar, Cerebral cortex, Membrane; details: Not Active = under 50% inhibition at 10 µM
Melanocortin receptor 4 = Melanocortin receptor 4 (Homo sapiens, UniProt P32245); format: cell membranes, Membrane; details: hek293; further: in other assays of this panel Not Active means under 50% inhibition at 10 µM
Sequence of Melanocortin receptor 4 (P32245 whole entry): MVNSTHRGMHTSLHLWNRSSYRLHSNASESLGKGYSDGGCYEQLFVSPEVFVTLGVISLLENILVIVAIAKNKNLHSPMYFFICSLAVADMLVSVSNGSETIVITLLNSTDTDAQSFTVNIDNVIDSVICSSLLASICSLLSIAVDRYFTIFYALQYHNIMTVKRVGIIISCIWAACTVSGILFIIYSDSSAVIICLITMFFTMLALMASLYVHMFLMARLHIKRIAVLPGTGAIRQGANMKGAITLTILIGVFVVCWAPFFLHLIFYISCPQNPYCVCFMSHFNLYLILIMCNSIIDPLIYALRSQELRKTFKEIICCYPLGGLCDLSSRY

[7] = molecular target: T2, Neuropeptide Y receptor type 2 (Homo sapiens, UniProt P49146); format: cell membranes, Membrane; details: kan-ts; further: in other assays of this panel Not Active means under 50% inhibition at 10 µM
T2 sequence (P49146 whole entry): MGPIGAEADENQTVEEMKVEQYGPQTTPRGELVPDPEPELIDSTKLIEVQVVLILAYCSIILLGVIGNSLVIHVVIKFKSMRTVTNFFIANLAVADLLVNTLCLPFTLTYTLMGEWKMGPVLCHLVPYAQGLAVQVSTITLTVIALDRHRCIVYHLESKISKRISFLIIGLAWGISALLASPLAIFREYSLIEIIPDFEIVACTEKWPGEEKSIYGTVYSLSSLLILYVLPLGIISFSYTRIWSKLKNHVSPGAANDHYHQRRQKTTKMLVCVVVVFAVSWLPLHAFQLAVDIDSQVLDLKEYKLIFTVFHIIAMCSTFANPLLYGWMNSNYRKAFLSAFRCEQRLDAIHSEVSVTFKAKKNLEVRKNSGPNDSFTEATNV

[8] = DRUGMATRIX: Phosphodiesterase PDE3 enzyme inhibition (substrate: [3H]cAMP + cAMP); format: tissue-based, Homo sapiens; details: platelet, Not Active = under 50% inhibition at 10 µM
[9] = DRUGMATRIX: Platelet-Derived Growth Factor (PDGF) radioligand binding (ligand: [125I] PDGF); format: cell-based; details: nih3t3; Not Active = under 50% inhibition at 10 µM
[10] = molecular target: 5-hydroxytryptamine receptor 1B (Rattus norvegicus, UniProt P28564); format: cell membranes, Wistar, Cerebral cortex, Membrane; further: in other assays of this panel Not Active means under 50% inhibition at 10 µM
Sequence of 5-hydroxytryptamine receptor 1B (P28564 whole entry): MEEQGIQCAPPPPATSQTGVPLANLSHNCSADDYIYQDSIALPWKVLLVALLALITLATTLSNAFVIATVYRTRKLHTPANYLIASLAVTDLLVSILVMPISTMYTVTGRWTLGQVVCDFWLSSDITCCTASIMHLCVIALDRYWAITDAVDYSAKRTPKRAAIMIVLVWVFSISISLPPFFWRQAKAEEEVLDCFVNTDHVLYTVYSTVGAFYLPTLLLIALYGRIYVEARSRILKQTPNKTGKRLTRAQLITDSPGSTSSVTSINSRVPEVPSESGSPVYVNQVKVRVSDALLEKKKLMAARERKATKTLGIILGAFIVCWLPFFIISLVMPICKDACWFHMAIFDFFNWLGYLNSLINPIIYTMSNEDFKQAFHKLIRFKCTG

Adenosine receptor A1 = molecular target: T3, Adenosine receptor A1 (Homo sapiens, UniProt P30542); format: cell membranes, CHO, Membrane; details: cho
T3 sequence (P30542 whole entry): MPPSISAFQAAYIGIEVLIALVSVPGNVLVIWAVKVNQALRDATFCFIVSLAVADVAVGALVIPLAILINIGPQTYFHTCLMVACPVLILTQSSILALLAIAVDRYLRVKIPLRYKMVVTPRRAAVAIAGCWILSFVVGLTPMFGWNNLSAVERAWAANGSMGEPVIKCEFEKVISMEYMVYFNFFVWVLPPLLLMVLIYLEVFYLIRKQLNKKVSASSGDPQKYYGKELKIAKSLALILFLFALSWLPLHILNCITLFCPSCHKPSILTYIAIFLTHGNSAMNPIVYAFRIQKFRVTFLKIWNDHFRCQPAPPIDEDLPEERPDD

Cytochrome P450 3A4 = Cytochrome P450 3A4 (Homo sapiens, UniProt P08684); details: bti-tn-5b1-4; further: in other assays of this panel Not Active means under 50% inhibition at 10 µM
Sequence of Cytochrome P450 3A4 (P08684 whole entry): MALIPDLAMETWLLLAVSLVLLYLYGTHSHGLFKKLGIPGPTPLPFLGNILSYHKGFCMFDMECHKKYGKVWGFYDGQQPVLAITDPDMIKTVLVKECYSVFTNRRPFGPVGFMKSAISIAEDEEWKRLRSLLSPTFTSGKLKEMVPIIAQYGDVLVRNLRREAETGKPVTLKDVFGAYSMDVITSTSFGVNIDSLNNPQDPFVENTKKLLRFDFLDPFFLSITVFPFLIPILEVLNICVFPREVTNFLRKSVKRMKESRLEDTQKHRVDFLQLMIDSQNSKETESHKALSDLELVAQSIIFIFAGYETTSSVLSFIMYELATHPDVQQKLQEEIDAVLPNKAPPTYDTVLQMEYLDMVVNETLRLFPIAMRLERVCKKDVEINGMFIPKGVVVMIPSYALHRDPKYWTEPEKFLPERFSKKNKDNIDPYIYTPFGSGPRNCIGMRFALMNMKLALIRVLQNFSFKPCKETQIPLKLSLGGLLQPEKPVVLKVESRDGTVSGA

Estrogen receptor = molecular target: T4, Estrogen receptor (Homo sapiens, UniProt P03372); details: sf9; further: in other assays of this panel Not Active means under 50% inhibition at 10 µM
T4 sequence (P03372 whole entry): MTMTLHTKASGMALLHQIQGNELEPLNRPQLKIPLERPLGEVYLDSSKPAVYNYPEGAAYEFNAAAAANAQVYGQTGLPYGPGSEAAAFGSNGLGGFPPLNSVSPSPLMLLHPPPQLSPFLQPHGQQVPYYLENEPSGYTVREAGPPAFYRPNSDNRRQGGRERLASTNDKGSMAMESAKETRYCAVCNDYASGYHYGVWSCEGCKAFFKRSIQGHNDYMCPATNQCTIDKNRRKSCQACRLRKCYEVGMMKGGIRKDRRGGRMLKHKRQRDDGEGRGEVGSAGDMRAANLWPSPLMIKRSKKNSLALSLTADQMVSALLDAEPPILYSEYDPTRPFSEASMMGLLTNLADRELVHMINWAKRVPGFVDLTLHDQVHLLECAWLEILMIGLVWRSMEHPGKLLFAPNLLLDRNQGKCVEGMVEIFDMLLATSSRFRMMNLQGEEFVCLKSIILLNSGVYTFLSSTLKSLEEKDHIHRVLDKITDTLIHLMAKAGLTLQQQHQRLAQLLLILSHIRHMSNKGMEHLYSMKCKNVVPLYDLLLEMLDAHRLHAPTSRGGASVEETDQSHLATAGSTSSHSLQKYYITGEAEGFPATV

Compound	IC50 [1]	IC50 (Substance-P receptor)	IC50 [2]	IC50 (D(3) dopamine receptor; cho)	IC50 [3]	Ki [3]	IC50 [4]	Ki [4]	IC50 [5]	Ki [5]	IC50 (Histamine H2 receptor; cho-k1)	IC50 [6]	IC50 (Melanocortin receptor 4)	IC50 [7]	IC50 [9]	Ki [9]	IC50 (Adenosine receptor A1)	IC50 (Cytochrome P450 3A4)	Ki (Cytochrome P450 3A4)	IC50 (Estrogen receptor)	also measured
GOLD SODIUM THIOMALATE	Not Active	Not Active	Not Active	Not Active	Not Active	Not Active	Not Active	Not Active	Not Active	Not Active	Not Active	Not Active	Not Active	Not Active	Not Active	Not Active	Not Active	Not Active	Not Active	Not Active	Ki [1]: Not Active; Ki (Substance-P receptor): Not Active; Ki [2]: Not Active; Ki (D(3) dopamine receptor; cho): Not Active; Ki (Histamine H2 receptor; cho-k1): Not Active; Ki [6]: Not Active; Ki (Melanocortin receptor 4): Not Active; Ki [7]: Not Active; IC50 [8]: Not Active; Ki [8]: Not Active; IC50 [10]: Not Active; Ki [10]: Not Active; Ki (Adenosine receptor A1): Not Active; Ki (Estrogen receptor): Not Active
CISPLATIN	Not Active	Not Active		Not Active	Not Active	Not Active	Not Active	Not Active	Not Active	Not Active	Not Active	Not Active	Not Active	Not Active	Not Active	Not Active	Not Active	Not Active	Not Active	Not Active	Ki [1]: Not Active; Ki (Substance-P receptor): Not Active; IC50 ([2]; read-out: IC50): 13500 nM; Ki ([2]; read-out: Ki): 9460 nM; Ki (D(3) dopamine receptor; cho): Not Active; Ki (Histamine H2 receptor; cho-k1): Not Active; Ki [6]: Not Active; Ki (Melanocortin receptor 4): Not Active; Ki [7]: Not Active; IC50 ([8]; read-out: IC50): 46300 nM; IC50 [10]: Not Active; Ki [10]: Not Active; Ki (Adenosine receptor A1): Not Active; Ki (Estrogen receptor): Not Active
CNCCC=C1c2ccccc2CCc2ccccc21 [NORTRIPTYLINE]	Not Active	Not Active	Not Active		Not Active	Not Active	Not Active	Not Active	Not Active	Not Active			Not Active	Not Active	Not Active	Not Active	Not Active	Not Active	Not Active	Not Active	IC50 (D(3) dopamine receptor; read-out: IC50): 179 nM; Ki (D(3) dopamine receptor; read-out: Ki): 61 nM; IC50 (Histamine H2 receptor; read-out: IC50): 2330 nM; Ki (Histamine H2 receptor; read-out: Ki): 2300 nM; IC50 ([6]; read-out: IC50): 3860 nM; Ki ([6]; read-out: Ki): 2570 nM; IC50 [8]: Not Active; Ki [8]: Not Active; IC50 ([10]; read-out: IC50): 3200 nM; Ki ([10]; read-out: Ki): 1450 nM
COc1ccc2cc(CC(=O)O)ccc2c1	Not Active	Not Active	Not Active	Not Active	Not Active	Not Active	Not Active	Not Active	Not Active	Not Active	Not Active	Not Active	Not Active	Not Active	Not Active	Not Active	Not Active	Not Active	Not Active	Not Active	Ki [6]: Not Active; IC50 [8]: Not Active; Ki [8]: Not Active; IC50 [10]: Not Active
O=C1CN=C(c2ccccc2)c2cc([N+](=O)[O-])ccc2N1 [NITRAZEPAM]	Not Active	Not Active	Not Active	Not Active	Not Active	Not Active	Not Active	Not Active	Not Active	Not Active	Not Active	Not Active	Not Active	Not Active	Not Active	Not Active	Not Active	Not Active	Not Active	Not Active	Ki [6]: Not Active; IC50 [8]: Not Active; Ki [8]: Not Active; IC50 [10]: Not Active
CC1=Nc2ccc(Cl)cc2S(=O)(=O)N1 [DIAZOXIDE]	Not Active	Not Active	Not Active	Not Active	Not Active	Not Active	Not Active	Not Active	Not Active	Not Active	Not Active	Not Active	Not Active	Not Active	Not Active	Not Active	Not Active	Not Active	Not Active	Not Active	Ki [6]: Not Active; IC50 [8]: Not Active; Ki [8]: Not Active; IC50 [10]: Not Active
